How the values were obtained:
[1] = test system: Dirofilaria immitis microfilariae; test: In vitro assay 4: Dirofilaria immitis microfilariae (DIROIM L1) motility; conditions: 72 h, read-out: EC50 (reduction of motility)
C. elegans Slo-1a = C. elegans Slo-1a (Caenorhabditis elegans, UniProt Q95V25)
Experimental: In Vitro Assay 1: C. elegans Slo-1a—Action at a Recombinant C. elegans Cell Line
Generation of a Stable C. elegans CHO Cell Line
For transfection with plasmid DNA to express C. elegans Slo-1a (accession number AAL28102) CHO cells were passaged to 40% confluence before adding the transfection solution to the cell culture. The transfection solution included 300 μL OptiMEM (Life Technologies, Nr.: 31985), 2 μL (=6 μg) of plasmid DNA containing the C. elegans Slo 1a gene and 9 μL FugeneHD (Promega, Nr.: E2311), and was added to the cells prior to incubation for 48 hours at 37° C., 5% CO2. The transfection medium was exchanged for the selection medium which contains additional G418 (2 mg/ml, Invitrogen, Nr.: 10131) and the cells were seeded into 384 well plates (300 cells/well). After a few weeks, the remaining surviving cells were tested with a voltage sensitive dye (Membrane Potential Assay Kit, Molecular Devices Nr.: R8034) for K+ channel expression. Positive cell clones were purified by the limited dilution technique. For this the clone with the highest and most robust signal in the voltage sensitive dye assay was further subcloned (incubated) in 384 well plates (0.7 cells/well) in order to obtain clonal purity. This generated a final stable CHO cell line expressing the C. elegans Slo-1a.
Cells were cultured at 37° C., and 5% CO2 in MEMalpha with Glutamax I (Invitrogen, Nr.: 32571), supplemented with 10% (v/v) heat inactivated fetal bovine serum (Invitrogen, Nr.: 10500), G418 (1 mg/ml. Invitrogen. Nr.: 10131). Cells were detached using Accutase (Sigma. Nr.: A6964).
Membrane Potential Measurements
Laboratory compound testing was performed on 384-well microtiter plates (MTPs, Greiner, Nr.: 781092), 8000 cells/well were plated onto 384-well MTPs and cultured for 20 to 24 hours at 37° C., and 5% CO2. After removal of the cell culture medium, the cells were washed once with tyrode (150 mM NaCl, 0.3 mM KCl, 2 mM CaCl2. 1 mM MgCl2. 0.8 mM NaH2PO4, 5 mM Glucose, 28 mM Hepes, pH 7.4) and then loaded with the voltage sensitive dye of the Membrane Potential Assay Kit diluted in tyrode for 1 h at room temperature.
After starting the measurement of fluorescence using a FLIPR Tetra (Molecular Devices, Exc. 510-545 nm, Emm. 565-625 nm), test compounds were added followed by the addition of KCl tyrode (final assay concentration: 70 mM KCl, 2 mM CaCl2, 1 mM MgCl2, 0.8 mM NaH2PO4, 5 mM Glucose, 28 mM Hepes, pH 7.4, including the voltage sensitive dye). The measurement was completed after 7 minutes.
The data were evaluated by using the ActivityBase XLfit software (IDBS) for curve fitting and calculation of the half-maximal effective concentration (EC50) and are reported as negative decadic logarithm (pE50).

D. immitis Slo-1 = D. immitis Slo-1 (Dirofilaria immitis, UniProt I0DFK5); test: In vitro assay 2: D. immitis Slo-1, membrane potential in recombinant CHO cell line; assay type: cell-based
[2] = test system: Dirofilaria immitis third-stage larvae; test: In vitro assay 5: Dirofilaria immitis (DIROIM L4) larval motility; conditions: 72 h, read-out: EC50 (reduction of motility)
[3] = test system: Adult Nippostrongylus brasiliensis; test: In vitro assay 3: Nippostrongylus brasiliensis (NIPOBR), acetylcholine esterase readout; conditions: read-out: activity (reduction of AChE compared to negative control); for inhibition at 1 µg/mL: 1 μg/ml; for inhibition at 10 µg/mL: 10 μg/ml
Experimental: In Vitro Assay 3: Nippostrongylus Brasiliensis (NIPOBR)
Adult Nippostrongylus brasiliensis were washed with saline buffer containing 100 U/ml penicillin, 0.1 mg/ml streptomycin and 2.5 μg/ml amphotericin B. Test compounds were dissolved in DMSO and worms were incubated in medium in a final concentration of 10 μg/ml (10 ppm) respectively 1 μg/ml (1 ppm). An aliquot of the medium was used to determine the acetylcholine esterase activity in comparison to a negative control. The principle of measuring acetylcholine esterase as readout for anthelmintic activity was described in Rapson et al (1986) and Rapson et al (1987).

[4] = log P by HPLC on reversed phase columns (LC-MS Method 0)
Experimental: Measurement of log P values was performed according to EEC directive 79/831 Annex V.A8 by HPLC (High Performance Liquid Chromatography) on reversed phase columns with the following methods, instrument(s): Agilent 1100 LC system, Agilent MSD system, HTS PAL; Waters IClass Acquity UPLC, SQD2 (MS), PDA (LV). • ^[a] log P value is determined by measurement of LC-UV, in an acidic range, with 0.1% formic acid in water and acetonitrile as eluent (linear gradient from 10% acetonitrile to 95% acetonitrile). • ^[b] log P value is determined by measurement of LC-UV, in a neutral range, with 0.001 molar ammonium acetate solution in water and acetonitrile as eluent (linear gradient from 10% acetonitrile to 95% acetonitrile).
Calibration was done with straight-chain alkan-2-ones (with 3 to 16 carbon atoms) with known log P values (measurement of log P values using retention times with linear interpolation between successive alkanones). Lambda-max-values were determined using UV-spectra from 200 nm to 400 nm and the peak values of the chromatographic signals.

Haemonchus contortus = test: In vitro assay 7: Haemonchus contortus (HAEMCO) larval mortality; conditions: 120 h, read-out: activity (larval mortality)
Experimental: In Vitro Assay 7: Haemonchus contortus (HAEMCO)
Solvent: Dimethyl Sulfoxide
Approximately 40 larvae of the red stomach worm (Haemonchus contortus) are transferred into a test tube containing compound solution.
After 5 days the percentage of larval mortality is recorded. 100% efficacy means all larvae are killed, 0% efficacy means no larvae are killed.

Cooperia curticei = test: In vitro assay 6: Cooperia curticei (COOPCU) larval mortality; conditions: 120 h, read-out: activity (larval mortality)
Experimental: In Vitro Assay 6: Cooperia curticei (COOPCU)
Solvent: Dimethyl Sulfoxide
Approximately 40 nematode larvae (Cooperia curticei) are transferred into a test tube containing the compound solution.
After 5 days percentage of larval mortality is recorded. 100% efficacy means all larvae are killed; 0% efficacy means no larvae are killed.

Chain of D. immitis Slo-1 (I0DFK5 1-1119): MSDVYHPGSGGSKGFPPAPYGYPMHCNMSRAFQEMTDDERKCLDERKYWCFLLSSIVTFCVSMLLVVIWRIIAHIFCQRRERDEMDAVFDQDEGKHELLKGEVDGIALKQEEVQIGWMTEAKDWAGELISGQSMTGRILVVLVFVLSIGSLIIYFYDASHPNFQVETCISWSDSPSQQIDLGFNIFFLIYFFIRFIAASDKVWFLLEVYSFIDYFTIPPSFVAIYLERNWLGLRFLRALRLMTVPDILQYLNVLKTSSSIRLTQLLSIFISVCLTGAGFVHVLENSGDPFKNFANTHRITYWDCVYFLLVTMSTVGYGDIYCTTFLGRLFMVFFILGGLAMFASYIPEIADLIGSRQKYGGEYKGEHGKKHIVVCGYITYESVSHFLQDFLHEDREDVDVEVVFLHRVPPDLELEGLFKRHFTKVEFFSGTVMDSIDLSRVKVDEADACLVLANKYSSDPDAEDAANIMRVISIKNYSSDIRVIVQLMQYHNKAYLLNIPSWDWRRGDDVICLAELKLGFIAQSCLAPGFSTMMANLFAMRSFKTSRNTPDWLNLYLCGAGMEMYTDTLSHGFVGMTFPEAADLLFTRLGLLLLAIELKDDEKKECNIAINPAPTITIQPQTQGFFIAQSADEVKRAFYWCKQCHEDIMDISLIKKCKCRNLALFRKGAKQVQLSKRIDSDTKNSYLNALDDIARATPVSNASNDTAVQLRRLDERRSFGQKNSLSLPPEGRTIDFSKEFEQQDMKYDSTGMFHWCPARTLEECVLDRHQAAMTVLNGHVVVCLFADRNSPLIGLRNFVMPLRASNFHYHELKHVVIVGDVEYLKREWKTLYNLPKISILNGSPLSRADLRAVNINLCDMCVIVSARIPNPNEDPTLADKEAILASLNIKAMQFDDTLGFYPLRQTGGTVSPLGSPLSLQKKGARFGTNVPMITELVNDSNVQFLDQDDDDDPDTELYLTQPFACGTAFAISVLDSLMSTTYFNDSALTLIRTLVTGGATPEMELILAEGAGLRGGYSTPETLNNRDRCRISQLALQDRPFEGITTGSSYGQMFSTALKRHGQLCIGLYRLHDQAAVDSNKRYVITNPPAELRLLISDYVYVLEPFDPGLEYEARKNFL
Chain of C. elegans Slo-1a (Q95V25 whole entry): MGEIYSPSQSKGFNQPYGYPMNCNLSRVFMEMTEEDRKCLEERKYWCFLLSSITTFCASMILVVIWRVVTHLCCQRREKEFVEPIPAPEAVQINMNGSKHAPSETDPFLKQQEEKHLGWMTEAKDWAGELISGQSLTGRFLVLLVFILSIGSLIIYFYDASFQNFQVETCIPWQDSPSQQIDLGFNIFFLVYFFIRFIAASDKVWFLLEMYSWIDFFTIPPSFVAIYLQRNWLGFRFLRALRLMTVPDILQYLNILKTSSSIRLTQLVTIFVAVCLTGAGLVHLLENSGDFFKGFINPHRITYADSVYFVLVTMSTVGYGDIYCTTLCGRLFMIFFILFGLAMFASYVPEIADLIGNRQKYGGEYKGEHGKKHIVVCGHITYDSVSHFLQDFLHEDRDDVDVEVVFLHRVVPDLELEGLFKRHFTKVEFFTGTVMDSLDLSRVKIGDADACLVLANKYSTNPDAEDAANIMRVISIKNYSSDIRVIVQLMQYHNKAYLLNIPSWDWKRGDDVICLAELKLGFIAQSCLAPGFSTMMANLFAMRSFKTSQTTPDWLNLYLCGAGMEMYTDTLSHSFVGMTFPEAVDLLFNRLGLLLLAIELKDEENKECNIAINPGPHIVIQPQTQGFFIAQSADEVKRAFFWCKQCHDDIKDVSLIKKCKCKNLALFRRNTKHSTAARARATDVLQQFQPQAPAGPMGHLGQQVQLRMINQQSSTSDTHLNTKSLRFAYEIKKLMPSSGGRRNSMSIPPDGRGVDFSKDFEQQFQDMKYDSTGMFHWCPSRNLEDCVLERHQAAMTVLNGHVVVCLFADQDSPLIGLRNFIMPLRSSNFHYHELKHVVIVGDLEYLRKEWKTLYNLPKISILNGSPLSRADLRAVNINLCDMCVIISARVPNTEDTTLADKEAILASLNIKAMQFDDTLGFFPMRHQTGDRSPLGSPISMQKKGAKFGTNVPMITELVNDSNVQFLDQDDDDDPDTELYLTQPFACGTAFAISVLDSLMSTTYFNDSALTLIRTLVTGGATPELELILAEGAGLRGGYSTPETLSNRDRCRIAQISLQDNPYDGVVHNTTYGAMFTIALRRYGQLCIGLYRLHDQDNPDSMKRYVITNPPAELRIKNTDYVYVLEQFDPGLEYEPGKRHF

SMILES: O=C(N[C@H]1CCOc2ccccc21)c1cnc2c(-c3cc(F)cc(F)c3F)cccc2c1N1CC(F)C1 [Example 15]
- EC50 [1]: < 0.1 µg/mL
- EC50 (C. elegans Slo-1a): < 3.16 nM
- EC50 (D. immitis Slo-1): 31.6 to 316 nM
- EC50 [2]: < 0.1 µg/mL
- inhibition at 1 µg/mL [3]: > 80%
- inhibition at 10 µg/mL [3]: > 80%

SMILES: COc1ccc2c(C3CCOCC3)c(C(=O)N[C@H]3CCOc4ccccc43)cnc2c1-c1cc(F)cc(F)c1F [Example 7, N-[(4S)-3,4-dihydro-2H-chromen-4-yl]-7-methoxy-4-(tetrahydro-2H-pyran-4-yl)-8-(2,3,5-trifluorophenyl)quinoline-3-carboxamide]
- EC50 [1]: < 0.1 µg/mL
- EC50 (C. elegans Slo-1a): < 3.16 nM
- EC50 (D. immitis Slo-1): 3.16 to 31.6 nM
- EC50 [2]: < 0.1 µg/mL
- inhibition at 1 µg/mL [3]: > 80%
- inhibition at 10 µg/mL [3]: > 80%

SMILES: Cc1ccc2c(c1)[C@@H](NC(=O)c1cnc3c(-c4cc(F)cc(F)c4F)c(F)ccc3c1N1CC(F)C1)CCO2 [Example 9]
- EC50 [1]: < 0.1 µg/mL
- EC50 (D. immitis Slo-1): 316 to 5010 nM
- EC50 [2]: < 0.1 µg/mL
- inhibition at 1 µg/mL [3]: > 80%
- inhibition at 10 µg/mL [3]: > 80%

SMILES: O=C(N[C@H]1CCCc2ccccc21)c1cnc2c(-c3cc(F)cc(F)c3F)cccc2c1C1CCOCC1 [Example 20]
- EC50 [1]: < 0.1 µg/mL
- EC50 (D. immitis Slo-1): 31.6 to 316 nM
- EC50 [2]: < 0.1 µg/mL
- inhibition at 1 µg/mL [3]: > 80%
- inhibition at 10 µg/mL [3]: > 80%

SMILES: O=C(N[C@H]1CCOc2ccccc21)c1cnc2c(Br)c(F)ccc2c1N1CC(F)C1 [Intermediate 15A, 8-Bromo-N-[(4S)-3,4-dihydro-2H-chromen-4-yl]-7-fluoro-4-(3-fluoroazetidin-1-yl)quinoline-3-carboxamide]
- chromatographic logP [4]: 1.29

SMILES: O=C(N[C@H]1CCOc2ccccc21)c1cnc2c(-c3cc(F)cc(F)c3F)c(F)ccc2c1C1CCOCC1 [Example 3, N-[(4S)-3,4-Dihydro-2H-chromen-4-yl]-7-fluoro-4-(tetrahydro-2H-pyran-4-yl)-8-(2,3,5-trifluorophenyl)quinoline-3-carboxamide]
- EC50 [1]: < 0.1 µg/mL
- EC50 (D. immitis Slo-1): 3.16 to 31.6 nM
- EC50 [2]: < 0.1 µg/mL
- inhibition at 1 µg/mL [3]: > 80%
- inhibition at 10 µg/mL [3]: > 80%

SMILES: N#Cc1ccc2c(c1)[C@@H](NC(=O)c1cnc3c(-c4cc(F)cc(F)c4F)c(F)ccc3c1N1CC(F)C1)CCO2 [Example 14]
- EC50 [1]: < 0.1 µg/mL
- EC50 (C. elegans Slo-1a): 31.6 to 316 nM
- EC50 (D. immitis Slo-1): 316 to 5010 nM
- EC50 [2]: < 0.1 µg/mL
- inhibition at 10 µg/mL [3]: > 80%

SMILES: CCc1c(C(=O)N[C@H]2CCc3ccccc32)cnc2c(-c3cc(F)cc(F)c3F)c(Cl)ccc12 [Example 22]
- EC50 [1]: < 0.1 µg/mL
- EC50 (D. immitis Slo-1): 3.16 to 31.6 nM
- EC50 [2]: < 0.1 µg/mL
- inhibition at 1 µg/mL [3]: > 80%
- inhibition at 10 µg/mL [3]: > 80%

SMILES: CCc1c(C(=O)N[C@H]2CCOc3ccccc32)cnc2c(-c3cc(F)cc(F)c3F)c(F)ccc12 [Example 4, N-[(4S)-3,4-Dihydro-2H-chromen-4-yl]-4-ethyl-7-fluoro-8-(2,3,5-trifluorophenyl)quinoline-3-carboxamide]
- EC50 [1]: < 0.1 µg/mL
- EC50 (C. elegans Slo-1a): < 3.16 nM
- EC50 (D. immitis Slo-1): 3.16 to 31.6 nM
- EC50 [2]: < 0.1 µg/mL
- inhibition at 1 µg/mL [3]: > 80%
- inhibition at 10 µg/mL [3]: > 80%

SMILES: O=C(N[C@H]1CCc2ccccc21)c1cnc2c(-c3cc(F)cc(F)c3F)c(F)ccc2c1N1CC(F)C1 [Example 12]
- EC50 [1]: < 0.1 µg/mL
- EC50 (C. elegans Slo-1a): < 3.16 nM
- EC50 (D. immitis Slo-1): 31.6 to 316 nM
- EC50 [2]: < 0.1 µg/mL
- inhibition at 1 µg/mL [3]: > 80%
- inhibition at 10 µg/mL [3]: > 80%

SMILES: O=C(N[C@H]1CCOc2ccccc21)c1cnc2c(Br)c(F)ccc2c1Cl [Intermediate 14A, 8-Bromo-4-chloro-N-[(4S)-3,4-dihydro-2H-chromen-4-yl]-7-fluoroquinoline-3-carboxamide]
- chromatographic logP [4]: 3.18

SMILES: O=C(N[C@H]1CCOc2ccccc21)c1cnc2c(-c3cc(F)cc(F)c3F)c(F)ccc2c1C1=CCOCC1 [Example 6, N-[(4S)-3,4-dihydro-2H-chromen-4-yl]-4-(3,6-dihydro-2H-pyran-4-yl)-7-fluoro-8-(2,3,5-trifluorophenyl)quinoline-3-carboxamide]
- EC50 [1]: < 0.1 µg/mL
- EC50 (D. immitis Slo-1): 3.16 to 31.6 nM
- EC50 [2]: < 0.1 µg/mL
- inhibition at 1 µg/mL [3]: > 80%
- inhibition at 10 µg/mL [3]: > 80%

SMILES: CC(C)Oc1ccc2c(C3CCOCC3)c(C(=O)N[C@H]3CCOc4ccccc43)cnc2c1-c1cc(F)cc(F)c1F [Example 18]
- EC50 [1]: < 0.1 µg/mL
- EC50 (D. immitis Slo-1): 316 to 5010 nM
- EC50 [2]: < 0.1 µg/mL
- inhibition at 1 µg/mL [3]: > 80%
- inhibition at 10 µg/mL [3]: > 80%

SMILES: O=C(N[C@H]1CCOc2ccc(F)cc21)c1cnc2c(-c3cc(F)cc(F)c3F)c(F)ccc2c1N1CC(F)C1 [Example 10]
- EC50 [1]: < 0.1 µg/mL
- EC50 (C. elegans Slo-1a): < 3.16 nM
- EC50 (D. immitis Slo-1): 31.6 to 316 nM
- EC50 [2]: < 0.1 µg/mL
- inhibition at 1 µg/mL [3]: > 80%
- inhibition at 10 µg/mL [3]: > 80%

SMILES: O=C(NC1COc2ccccc21)c1cnc2c(-c3cc(F)cc(F)c3F)cccc2c1C1CCOCC1 (racemic) [Example 17]
- EC50 [1]: < 0.1 µg/mL
- EC50 (D. immitis Slo-1): 316 to 5010 nM
- EC50 [2]: < 0.1 µg/mL
- inhibition at 1 µg/mL [3]: > 80%
- inhibition at 10 µg/mL [3]: > 80%

SMILES: O=C(NC1CCSc2ccc(F)cc21)c1cnc2c(-c3cc(F)cc(F)c3F)c(F)ccc2c1N1CC(F)C1 (stereo not drawn) [Example 8]
- EC50 [1]: < 0.1 µg/mL
- EC50 (D. immitis Slo-1): 316 to 5010 nM
- EC50 [2]: < 0.1 µg/mL
- inhibition at 10 µg/mL [3]: > 80%

SMILES: CCc1c(C(=O)N[C@H]2CCOc3ccccc32)cnc2c(-c3cc(F)cc(F)c3F)c(Cl)ccc12 [Example 21]
- EC50 [1]: < 0.1 µg/mL
- EC50 (C. elegans Slo-1a): < 3.16 nM
- EC50 [2]: < 0.1 µg/mL
- inhibition at 1 µg/mL [3]: > 80%
- inhibition at 10 µg/mL [3]: > 80%

SMILES: O=C(N[C@H]1CCc2ccccc21)c1cnc2c(-c3cc(F)cc(F)c3F)c(F)ccc2c1C1CCOCC1 [Example 16]
- EC50 [1]: < 0.1 µg/mL
- EC50 (C. elegans Slo-1a): < 3.16 nM
- EC50 (D. immitis Slo-1): 3.16 to 31.6 nM
- EC50 [2]: < 0.1 µg/mL
- inhibition at 1 µg/mL [3]: > 80%
- inhibition at 10 µg/mL [3]: > 80%

SMILES: O=C(N[C@H]1CCCc2ccccc21)c1cnc2c(-c3cc(F)cc(F)c3F)c(F)ccc2c1N1CC(F)C1 [Example 11]
- EC50 [1]: < 0.1 µg/mL
- EC50 (C. elegans Slo-1a): < 3.16 nM
- EC50 [2]: < 0.1 µg/mL
- inhibition at 1 µg/mL [3]: > 80%
- inhibition at 10 µg/mL [3]: > 80%

SMILES: O=C(N[C@H]1CCOc2ccccc21)c1cnc2c(-c3cc(F)cc(F)c3F)c(F)ccc2c1N1CC(F)C1 [Example 5, N-[(4S)-3,4-Dihydro-2H-chromen-4-yl]-7-fluoro-4-(3-fluoroazetidin-1-yl)-8-(2,3,5-trifluorophenyl)quinoline-3-carboxamide]
- chromatographic logP [4]: 1.93
- EC50 [1]: < 0.1 µg/mL
- EC50 (C. elegans Slo-1a): 3.16 to 31.6 nM
- EC50 (D. immitis Slo-1): 3.16 to 31.6 nM
- EC50 [2]: < 0.1 µg/mL
- inhibition at 1 µg/mL [3]: > 80%
- inhibition at 10 µg/mL [3]: > 80%

SMILES: O=C(N[C@H]1CCc2ccccc21)c1cnc2c(-c3cc(F)cc(F)c3F)cccc2c1C1CCOCC1 [Example 19]
- EC50 [1]: < 0.1 µg/mL
- EC50 (C. elegans Slo-1a): < 3.16 nM
- EC50 (D. immitis Slo-1): 316 to 5010 nM
- EC50 [2]: < 0.1 µg/mL
- inhibition at 1 µg/mL [3]: > 80%
- inhibition at 10 µg/mL [3]: > 80%

SMILES: O=C(N[C@H]1CCOc2ccccc21)c1cnc2c(-c3cc(F)cc(F)c3F)cccc2c1C1=CCOCC1 [Example 1, N-[(4S)-3,4-Dihydro-2H-chromen-4-yl]-4-(3,6-dihydro-2H-pyran-4-yl)-8-(2,3,5-trifluorophenyl)quinoline-3-carboxamide]
- mortality at 20 ppm (Haemonchus contortus): 80%
- mortality at 0.8 ppm (Cooperia curticei): 90%
- mortality at 4 ppm (Cooperia curticei): 90%
- mortality at 20 ppm (Cooperia curticei): 90%
- EC50 [1]: < 0.1 µg/mL
- EC50 (C. elegans Slo-1a): < 3.16 nM
- EC50 (D. immitis Slo-1): 31.6 to 316 nM
- EC50 [2]: < 0.1 µg/mL
- inhibition at 1 µg/mL [3]: > 80%

SMILES: CC1(C)C[C@H](NC(=O)c2cnc3c(-c4cc(F)cc(F)c4F)c(F)ccc3c2N2CC(F)C2)c2ccccc2O1 [Example 13]
- EC50 [1]: < 0.1 µg/mL
- EC50 (C. elegans Slo-1a): 3.16 to 31.6 nM
- EC50 (D. immitis Slo-1): 316 to 5010 nM
- EC50 [2]: < 0.1 µg/mL
- inhibition at 10 µg/mL [3]: > 80%

SMILES: O=C(N[C@H]1CCOc2ccccc21)c1cnc2c(-c3cc(F)cc(F)c3F)cccc2c1C1CCOCC1 [Example 2, N-[(4S)-3,4-Dihydro-2H-chromen-4-yl]-4-(tetrahydro-2H-pyran-4-yl)-8-(2,3,5-trifluorophenyl)quinoline-3-carboxamide]
- mortality at 4 ppm (Haemonchus contortus): 90%
- mortality at 20 ppm (Haemonchus contortus): 90%
- mortality at 0.8 ppm (Cooperia curticei): 100%
- mortality at 4 ppm (Cooperia curticei): 100%
- EC50 [1]: < 0.1 µg/mL
- EC50 (C. elegans Slo-1a): < 3.16 nM
- EC50 (D. immitis Slo-1): 3.16 to 31.6 nM
- EC50 [2]: < 0.1 µg/mL
- inhibition at 1 µg/mL [3]: > 80%
- inhibition at 10 µg/mL [3]: > 80%

— patent US12559481B2, “Quinoline derivatives” (ELANCO ANIMAL HEALTH GMBH, priority 2018, dated 2026)
